# What was measured:
# [1] = target or test not stated; chemically modified non-immunosuppressive rapamycin analogue; cited from earlier work
# [2] = test system: donor PBMCs; assay: IFNγ production in IL-12 pre-treated transduced and untransduced donor PBMCs; type: cell-based; details: untransduced controls and IL-18R-DARIC-GFP transduced cells; pre-treated 50 ng/mL human recombinant IL-12 for 24 hours, then medium with 100 ng/mL human recombinant IL-18; FIG. 2
# Description: IL-18 receptor (IL-18R) DARIC binding and signaling components were designed, constructed, and verified. An IL-18R DARIC lentiviral vector was constructed comprising an MNDU3 promoter operably linked to a polynucleotide encoding: a DARIC signaling component (CD8α-signal peptide, an FRB variant (T82L), and an IL-18R1 transmembrane and signaling domain); a P2A sequence; and a DARIC binding component (an Igκ-signal peptide, an FKBP12 domain, and a IL-18RAP transmembrane and signaling domain). An IL-18R DARIC-GFP lentiviral vector was constructed by appending another polynucleotide encoding a P2A sequence and GFP to the to the polynucleotide encoding the IL-18R1 signaling domain in aforementioned vector. See, e.g., SEQ ID NOs: 1-4.
# Donor PBMCs were transduced with LVV encoding IL-18R-DARIC-GFP. Transduced PBMCs and untransduced control PBMCs were pre-treated with 50 ng/mL human recombinant IL-12 for 24 hours. The treated cells were washed and cultured in medium only, medium with 100 ng/mL human recombinant IL-18 or medium with 1 nM rapamycin. […] FIG. 2.
Compound,IC50 [1] [nM],IFNγ production when cultured in IL-18 [2]
"CO[C@H]1[C@@H](O)[C@H](C)C[C@H](C)/C=C/C=C/C=C(\C)[C@@H](c2c[nH]c3c(C)cccc23)C[C@@H]2CC[C@@H](C)[C@@](O)(O2)C(=O)C(=O)N2CCCC[C@H]2C(=O)O[C@H]([C@H](C)C[C@@H]2CC[C@@H](O)[C@H](OC)C2)C[C@H](O)[C@H](C)/C=C(\C)[C@H]1O [AP21967, C-16-(S)-7-methylindolerapamycin]",10,–
IL-18: human recombinant IL-18 cytokine used as positive control,–,increased IFNγ production in both untransduced controls and cells transduced with IL-18R-DARIC-GFP

# Source: US12686711B2, “DARIC interleukin receptors” (Regeneron Pharmaceuticals, Inc., priority 2017, dated 2026)
